Data on seven molecules can be found in patent US8722681B2, “N-sulfonyl thiazolylpiperazine derivatives and related N-sulfonyl heterocyclic derivatives for the treatment of neuro degenerative diseases” (NV reMYND, priority 2007, dated 2014).

As a reminder, the EC50 is the concentration needed to bring the measured effect to its halfway point. Higher therefore signals a need for much substance.

Data set [1] has as its system M17-SYNwt cells. Briefly: α-synuclein cytotoxicity assay (LDH leakage from paraquat-treated M17-SYNwt cells). Format: cell-based, human. To be noted: Table 2; for EC50: Homo sapiens, M17-SYNwt cells, paraquat 32 mM, 40 hours, LDH activity; for % inh. (percentage inhibition): inhibition of synuclein toxicity at most effective concentration relative to untreated paraquat cells. An excerpt: An α-synuclein expression plasmid was constructed by sub-cloning the NcoI/XhoI fragment from 212T-SYN(WT) (Griffioen et al., Biochem Biophys Acta (2006) 1762(3):312-318) containing the cDNA of human wild type α-synuclein correspondingly into a standard mammalian expression vector pcDNA3.1 resulting in plasmid pcDNA3.1-SYNwt. Plasmid pcDNA3.1 and pcDNA3.1-SYNwt were transfected to human neuroblastoma cells (ATCC No. CRL-2267) and independent clonal lines with the plasmids stably integrated into the genome were selected. […] Over-expression of α-synuclein in M17-SYNwt cell lines was confirmed by Western analysis.
(§1) Due to the high levels of α-synuclein M17-SYNwt cells are exquisitely sensitivity to paraquat, a well-known risk factor of synuclein-dependent neuronal degeneration. In degenerated or dead cells lactate dehydrogenase (LDH) is leaked out of the cells into the extracellular environment due to a loss of plasma-membrane integrity. This principle was used to determine cytotoxicity by quantifying the level of leaked LDH into the growth medium.
(§2) The detailed method for determining α-synuclein cytotoxicity was as follows: From appropriate precultures of M17 and M17-SYN cells were seeded at 50000 cells/cm^2 in Optimem Reduced Serum without phenol red (InVitrogen, Cat. 31985-047) supplemented with 5% fetal calf serum, 1 mM sodium pyruvate, 1×non-essential amino acids, 500 μg/ml G418 0.5×antibiotic/antimycotic. After 3 hours of incubation at 37° C./5% CO2 paraquat was added to the cells (final concentration of 32 mM), together with the test compound and the cells were further incubated for 40 hours. Subsequently, LDH activity was determined using Promega Cytotox 96 Non-Radioactive cytotoxicity assay, (Cat. G1780) according the supplier's instructions.
This α-synuclein expressing neuroblastoma cells made it possible to assess the ability of novel compounds to counteract α-synuclein cytotoxicity. […] Since this method monitors leaked LDH from degenerated or dead cells only non-toxic compounds will be identified as active inhibitors of α-synuclein-mediated cytotoxicity. Lack of toxicity is an important characteristic for compounds to be used as a medicament to patients in need. A compound was considered to be active in this test when it inhibits α-synuclein cytotoxicity by more than 25% relative to untreated M17-SYNwt cells at a concentration of 20 μg/mL or lower. In the experiments, the control group consisted of M17-SYNwt cells treated with DMSO, the untreated paraquat group consisted of M17-SYNwt cells treated with paraquat and DMSO, and the treated paraquat group consisted of M17-SYNwt cells treated with paraquat and the test compound dissolved in DMSO.
Percent inhibition was calculated as the synuclein toxicity inhibition by the compound in treated paraquat cells, relative to the synuclein cytotoxicity in untreated paraquat cells.
The compounds from table 1 were screened for activity using the α-synuclein cytotoxicity assay as described above. Dose responses were carried out on all compounds found to be active (10 point curves in duplicate).
Background: Release of lactate dehydrogenase indicates damage to the cell membrane.

In data set [2] the test system is M17-SYNwt cells. Format: cell-based, human. Particulars: M17-SYNwt cells treated with paraquat; not seen in M17 cells; FIG. 1.
From the text: as §1, §2

Regarding `O=[N+]([O-])c1ccc(-c2csc(N3CCN(S(=O)(=O)c4ccc5c(c4)OCCO5)CC3)n2)cc1` [Compound 71, 1-(2,3-dihydrobenzo[b][1,4]dioxin-6-ylsulfonyl)-4-(4-(4-nitrophenyl)thiazol-2-yl)piperazine], in data set [1], the EC50 is 1440 nM and the “% inh. (percentage inhibition)” value amounted to 77%.

On to `O=[N+]([O-])c1cccc(-c2csc(N3CCN(S(=O)(=O)c4ccc5c(c4)OCCO5)CC3)n2)c1` [Compound 72, 1-(2,3-dihydrobenzo[b][1,4]dioxin-6-ylsulfonyl)-4-(4-(3-nitrophenyl)thiazol-2-yl)piperazine], for which, in data set [1], the half-maximal effective concentration (EC50) is 23500 nM and the “% inh. (percentage inhibition)” value is 85%.

`O=S(=O)(c1cccc2nonc12)N1CCN(c2nc(-c3ccc(F)cc3)cs2)CC1` [Compound 74, 4-(4-(4-(4-fluorophenyl)thiazol-2-yl)piperazin-1-ylsulfonyl)benzo[c][1,2,5]oxadiazole]: in data set [1], the response was half-maximal at 233 nM (EC50) and the “% inh. (percentage inhibition)” value was 41%.

Turning to `O=S(=O)(c1ccc2ccccc2c1)N1CCN(c2nc(-c3ccc(Cl)cc3)cs2)CC1` [Compound 75, 1-(4-(4-chlorophenyl)thiazol-2-yl)-4-(naphthalen-2-ylsulfonyl)piperazine], in data set [1], the EC50 came out at 870 nM and the “% inh. (percentage inhibition)” value came out at 84%.

Regarding `COc1ccccc1-c1csc(N2CCN(S(=O)(=O)c3cccc4c3ccn4C)CC2)n1` [Compound 77, 4-(4-(4-(2-methoxyphenyl)thiazol-2-yl)piperazin-1-ylsulfonyl)-1-methyl-1H-indole], in data set [1], the midpoint of the response, the EC50, lay at 257 nM and the “% inh. (percentage inhibition)” value is given as 69%.

In the case of `Cc1ccc(S(=O)(=O)N2CCN(c3nc(-c4cccs4)cs3)CC2)cc1` [Compound 78, 1-(4-(thiophen-2-yl)thiazol-2-yl)-4-tosylpiperazine], in data set [1], the EC50 was 316 nM and the “% inh. (percentage inhibition)” value is on record as 84%.

Regarding `C[n+]1ccc(-c2cc[n+](C)cc2)cc1` [paraquat], in data set [2], the “level of LDH leaked into the medium” value was “relatively high level”.
